# Source: patent US20150148235A1, “HERBICIDE-RESISTANT SUNFLOWER PLANTS WITH MULTIPLE HERBICIDE RESISTANT ALLELES OF AHASL1 AND METHODS OF USE” (NIDERA S.A., priority 2013, published 2015)
# Marks after values point to notes of the source that are not given here.
# Tested on: sunflower lines and hybrids carrying A122T and/or A205V AHASL1 alleles
# Test: Greenhouse whole-plant response to imazapyr doses (height, Phytotoxicity Index, dry biomass), Example 2
# Assay type: in vivo, Helianthus annuus
# Conditions: 14 DAT; for Biomass weight reduction: heterozygous A122T/A205V
# Description: Seeds were sown in Petri dishes and, after germination, plantlets were transplanted to pots of 10 cm of diameter in a potting media consisting of equal parts of vermiculite, soil and sand. Plants were grown in a greenhouse under natural light conditions supplemented with 400 W sodium halide lamps to provide a 16 hr daylength. Day/night temperatures were 25 and 20° C., respectively. At the V2-V4 stage (Schneiter & Miller (1981) Crop Sci. 21:901-903) 10 plants of each genotype were randomly assigned to each treatment consisting of eight imazapyr doses (0, 40, 80, 160, 240, 320, 400 and 480 g ai/ha, corresponding to untreated, 0.5×, 1×, 2×, 3×, 4×, 5× and 6×, respectively), and a zero-time biomass determination. Experiment was arranged as a randomized block design with a full factorial (sunflower line×treatment) arrangement of treatments and 10 replications.
# On the day of herbicide application ten plants of each genotype were cut at the cotyledonal node and dried at 60° C. for 48 hrs for zero-time dried weight determination.
# The remaining plants were maintained for 14 days after imazapyr treatment (DAT) and their height, Phytotoxicity Index (PI) and above ground dry biomass were determined Height was determined as the distance between the cotyledonal node and the apex of each plant. Above ground biomass data from each line were converted to biomass accumulation after application by subtracting the appropriate average zero-time biomass from each sample. Dry biomass data were converted to percentages of the untreated control plants within each line to allow direct comparisons between groups.
# [1] = H4 (A122T/A205V hybrid), 4x=320 g ai/ha
# [2] = L1 (A205V line), 0.5x=40 g ai/ha
# [3] = L1 (A205V line), 3x=240 g ai/ha
# [4] = L2 (A205V line), 5x=400 g ai/ha
# [5] = L3 (cmsGM40, A122T line), 2x=160 g ai/ha
# [6] = L3 (cmsGM40, A122T line), 4x=320 g ai/ha
# [7] = L4 (A122T line), 0.5x=40 g ai/ha
# [8] = L4 (A122T line), 2x=160 g ai/ha
# [9] = L4 (A122T line), 3x=240 g ai/ha
# [10] = L5 (WT susceptible), 1x=80 g ai/ha
# [11] = L5 (WT susceptible), 2x=160 g ai/ha
# [12] = L5 (WT susceptible), 3x=240 g ai/ha
# [13] = L5 (WT susceptible), 4x=320 g ai/ha
# [14] = L5 (WT susceptible), 5x=400 g ai/ha
# [15] = L5 (WT susceptible), 6x=480 g ai/ha
# [16] = mean of A122T genotypes (H2,L3,L4), 2x=160 g ai/ha
# [17] = mean of A122T genotypes (H2,L3,L4), 3x=240 g ai/ha
compound,measurement,setting,value
CC(C)C1(C)N=C(c2ncccc2C(=O)O)NC1=O (stereo not drawn) [imazapyr],biomass accumulation (dry),[1],85.0 % of untreated
same,plant height,[1],95.0 % of untreated
same,Phytotoxicity Index (scale 0-9),"H4 (A122T/A205V hybrid), 5x=400 g ai/ha",0.2
same,Phytotoxicity Index (scale 0-9),"H4 (A122T/A205V hybrid), 6x=480 g ai/ha",0.0
same,Phytotoxicity Index (scale 0-9),[2],0
same,plant height,[2],100.0 % of untreated
same,Phytotoxicity Index (scale 0-9),"L1 (A205V line), 1x=80 g ai/ha",0
same,plant height,"L1 (A205V line), 1x=80 g ai/ha",100.0 % of untreated
same,Phytotoxicity Index (scale 0-9),"L1 (A205V line), 2x=160 g ai/ha",1.6
same,Phytotoxicity Index (scale 0-9),[3],5.1
same,plant height,[3],50.0 % of untreated
same,Phytotoxicity Index (scale 0-9),"L1 (A205V line), 4x=320 g ai/ha",8.4
same,Phytotoxicity Index (scale 0-9),"L1 (A205V line), 5x=400 g ai/ha",8.9
same,Phytotoxicity Index (scale 0-9),"L1 (A205V line), 6x=480 g ai/ha",8.9
same,Phytotoxicity Index (scale 0-9),"L2 (A205V line), 0.5x=40 g ai/ha",0
same,Phytotoxicity Index (scale 0-9),"L2 (A205V line), 1x=80 g ai/ha",0
same,biomass accumulation (dry),"L2 (A205V line), 1x=80 g ai/ha",85.0 % of untreated
same,Phytotoxicity Index (scale 0-9),"L2 (A205V line), 2x=160 g ai/ha",3.1
same,Phytotoxicity Index (scale 0-9),"L2 (A205V line), 3x=240 g ai/ha",3.9
same,Phytotoxicity Index (scale 0-9),"L2 (A205V line), 4x=320 g ai/ha",5.9
same,Phytotoxicity Index (scale 0-9),[4],6.9
same,plant height,[4],26.0 % of untreated
same,Phytotoxicity Index (scale 0-9),"L2 (A205V line), 6x=480 g ai/ha",6.7
same,Phytotoxicity Index (scale 0-9),"L3 (cmsGM40, A122T line), 0.5x=40 g ai/ha",0.4
same,Phytotoxicity Index (scale 0-9),"L3 (cmsGM40, A122T line), 1x=80 g ai/ha",0.4
same,Phytotoxicity Index (scale 0-9),[5],0.4
same,plant height,[5],92.0 % of untreated
same,Phytotoxicity Index (scale 0-9),"L3 (cmsGM40, A122T line), 3x=240 g ai/ha",0.5
same,Phytotoxicity Index (scale 0-9),[6],1.0
same,biomass accumulation (dry),[6],75.0 % of untreated
same,Phytotoxicity Index (scale 0-9),"L3 (cmsGM40, A122T line), 5x=400 g ai/ha",2.0
same,Phytotoxicity Index (scale 0-9),"L3 (cmsGM40, A122T line), 6x=480 g ai/ha",2.5
same,Phytotoxicity Index (scale 0-9),[7],0.0
same,biomass accumulation (dry),[7],100.0 % of untreated
same,plant height,[7],100.0 % of untreated
same,Phytotoxicity Index (scale 0-9),"L4 (A122T line), 1x=80 g ai/ha",0.0
same,plant height,"L4 (A122T line), 1x=80 g ai/ha",100.0 % of untreated
same,Phytotoxicity Index (scale 0-9),[8],0.0
same,biomass accumulation (dry),[8],97.0 % of untreated
same,Phytotoxicity Index (scale 0-9),[9],0.0
same,plant height,[9],97.0 % of untreated
same,Phytotoxicity Index (scale 0-9),"L4 (A122T line), 4x=320 g ai/ha",0.0
same,Phytotoxicity Index (scale 0-9),"L4 (A122T line), 5x=400 g ai/ha",0.0
same,Phytotoxicity Index (scale 0-9),"L4 (A122T line), 6x=480 g ai/ha",0.5
same,Phytotoxicity Index (scale 0-9),"L5 (WT susceptible), 0.5x=40 g ai/ha",9
same,Phytotoxicity Index (scale 0-9),[10],9
same,biomass accumulation (dry),[10],15.0 % of untreated
same,Phytotoxicity Index (scale 0-9),[11],9
same,biomass accumulation (dry),[11],15.0 % of untreated
same,Phytotoxicity Index (scale 0-9),[12],9
same,biomass accumulation (dry),[12],15.0 % of untreated
same,Phytotoxicity Index (scale 0-9),[13],9
same,biomass accumulation (dry),[13],15.0 % of untreated
same,Phytotoxicity Index (scale 0-9),[14],9
same,biomass accumulation (dry),[14],15.0 % of untreated
same,Phytotoxicity Index (scale 0-9),[15],9
same,biomass accumulation (dry),[15],15.0 % of untreated
same,Height reduction,"heterozygotes A122T/A205V, 0.5x",0.6%
same,Biomass weight reduction,0.5x,0.3%
same,Biomass weight reduction,6x,33%
same,Phytotoxicity Index (scale 0-9),"mean of A122T genotypes (H2,L3,L4), 0.5x=40 g ai/ha",0.3
same,Phytotoxicity Index (scale 0-9),"mean of A122T genotypes (H2,L3,L4), 1x=80 g ai/ha",0.3
same,Phytotoxicity Index (scale 0-9),[16],0.3
same,plant height,[16],98.0 % of untreated
same,Phytotoxicity Index (scale 0-9),[17],0.3
same,biomass accumulation (dry),[17],90.0** % of untreated
same,Phytotoxicity Index (scale 0-9),"mean of A122T genotypes (H2,L3,L4), 4x=320 g ai/ha",0.5
same,Phytotoxicity Index (scale 0-9),"mean of A122T genotypes (H2,L3,L4), 5x=400 g ai/ha",0.8
same,Phytotoxicity Index (scale 0-9),"mean of A122T genotypes (H2,L3,L4), 6x=480 g ai/ha",1.2
same,Phytotoxicity Index (scale 0-9),"mean of A122T/A205V genotypes (H3,H4), 0.5x=40 g ai/ha",0.5
same,Phytotoxicity Index (scale 0-9),"mean of A122T/A205V genotypes (H3,H4), 1x=80 g ai/ha",0.5
same,Phytotoxicity Index (scale 0-9),"mean of A122T/A205V genotypes (H3,H4), 2x=160 g ai/ha",0.5
same,Phytotoxicity Index (scale 0-9),"mean of A122T/A205V genotypes (H3,H4), 3x=240 g ai/ha",0.5
same,Phytotoxicity Index (scale 0-9),"mean of A122T/A205V genotypes (H3,H4), 4x=320 g ai/ha",0.5
same,Phytotoxicity Index (scale 0-9),"mean of A122T/A205V genotypes (H3,H4), 5x=400 g ai/ha",0.6
same,Phytotoxicity Index (scale 0-9),"mean of A122T/A205V genotypes (H3,H4), 6x=480 g ai/ha",1
same,Phytotoxicity Index (scale 0-9),"mean of A205V genotypes (H1,L1,L2), 2x=160 g ai/ha",2.2*
same,Phytotoxicity Index (scale 0-9),"mean of A205V genotypes (H1,L1,L2), 3x=240 g ai/ha",5.1**
same,Phytotoxicity Index (scale 0-9),"mean of A205V genotypes (H1,L1,L2), 4x=320 g ai/ha",7.4**
same,Phytotoxicity Index (scale 0-9),"mean of A205V genotypes (H1,L1,L2), 5x=400 g ai/ha",8.2**
same,Phytotoxicity Index (scale 0-9),"mean of A205V genotypes (H1,L1,L2), 6x=480 g ai/ha",8.2**
